Experiments:
Assay type in all cases: in vivo
Conditions in all cases: foliar, compared to untreated control leaf disks, read-out: disease control
[1] = tested on: Puccinia recondita f. sp. tritici; experiment: Puccinia recondita f. sp. tritici / wheat / leaf disc curative (brown rust)
Protocol: Puccinia recondita f. sp. tritici/Wheat/Leaf Disc Curative (Brown Rust) Wheat leaf segments cv. Kanzler are placed on agar in multiwell plates (24-well format). The leaf segments are inoculated with a spore suspension of the fungus. Plates were stored in darkness at 19° C. and 75% rh. The formulated test compound diluted in water was applied 1 day after inoculation.

Pyrenophora teres = Pyrenophora teres / barley / leaf disc preventative (net blotch)
Source text: Pyrenophora teres/Barley/Leaf Disc Preventative (Net Blotch) Barley leaf segments cv. Hasso were placed on agar in a multiwell plate (24-well format) and sprayed with the formulated test compound diluted in water. The leaf segments were inoculated with a spore suspension of the fungus 2 days after application.

[2] = tested on: Blumeria graminis f. sp. tritici (Erysiphe graminis f. sp. tritici); experiment: Blumeria graminis f. sp. tritici / wheat / leaf disc preventative (powdery mildew on wheat)
In short: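 Preventative leaf-disc test: compound (200 ppm) was sprayed onto cv. Kanzler wheat segments, which were dusted with conidia from infected plants 1 day after application. After incubation at 20° C and 60% rh, disease control relative to untreated segments was rated 6-8 days after application.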

[3] = tested on: Puccinia recondita f. sp. tritici; experiment: Puccinia recondita f. sp. tritici / wheat / leaf disc preventative (brown rust)
Source text: Puccinia recondita f. sp. tritici/Wheat/Leaf Disc Preventative (Brown Rust) Wheat leaf segments cv. Kanzler were placed on agar in multiwell plates (24-well format) and sprayed with the formulated test compound diluted in water. The leaf disks were inoculated with a spore suspension of the fungus 1 day after application.

Measured: pest or weed control at 200 ppm

CCN(C)/C=N/c1cc(Br)c(OCCCCc2ccc(F)cc2)nc1C [Q.026]
≥ 50%: [1] | Pyrenophora teres | [2] | [3]

CCN(C)/C=N/c1cc(Br)c(O[C@H]2CC[C@@H](c3ccccc3)CC2)nc1C [Q.269]
≥ 50%: [1] | Pyrenophora teres | [2] | [3]

CCN(C)/C=N/c1cc(C(F)F)c(OC(C)c2cc(F)cc(F)c2)nc1C (stereo not drawn) [Q.215]
≥ 50%: [1] | Pyrenophora teres | [2] | [3]

CCc1cc(/N=C/N(C)CC)c(C)nc1O[C@H]1CC[C@@H](C(C)C)CC1 [Q.251]
≥ 50%: [1] | Pyrenophora teres | [2] | [3]

CCCN(C)/C=N/c1cc(Br)c(OC(C)c2cc(F)cc(F)c2)nc1C (stereo not drawn) [Q.191]
≥ 50%: [1] | Pyrenophora teres | [2] | [3]

CCN(C)/C=N/c1cc(Br)c(OC2CCC(Cc3ccccc3)CC2)nc1C (stereo not drawn) [Q.119]
≥ 50%: [1] | Pyrenophora teres | [2] | [3]

CCN(C)/C=N/c1cc(Br)c(OCCC[Si](C)(C)C)nc1C [Q.015]
≥ 50%: [1] | Pyrenophora teres | [2] | [3]

C#Cc1cc(/N=C/N(C)CC)c(C)nc1OC(C)c1cc(F)cc(F)c1 (stereo not drawn) [Q.229]
≥ 50%: [1] | Pyrenophora teres | [2] | [3]

CCN(C)/C=N/c1cc(Br)c(OC2CC=CCC2)nc1C (stereo not drawn) [Q.316]
≥ 50%: [1] | Pyrenophora teres | [2] | [3]

CCN(C)/C=N/c1cc(Br)c(OC2CCSCC2)nc1C [Q.158]
≥ 50%: [1] | Pyrenophora teres | [2] | [3]

CCN(C)/C=N/c1cc(Br)c(OCCCC(C)=C(C)C)nc1C [Q.103]
≥ 50%: [1] | Pyrenophora teres | [2] | [3]

CCN(C)/C=N/c1cc(Br)c(OC(C)Cc2cc(Cl)cc(Cl)c2)nc1C (stereo not drawn) [Q.221]
≥ 50%: [1] | Pyrenophora teres | [2] | [3]

CCN(C)/C=N/c1cc(Br)c(OCCc2ccc(Br)cc2)nc1C [Q.012]
≥ 50%: [1] | Pyrenophora teres | [2] | [3]

CCN(C)/C=N/c1cc(Br)c(OC2CCc3ccccc3C2)nc1C (stereo not drawn) [Q.110]
≥ 50%: [1] | Pyrenophora teres | [2] | [3]

CCN(C)/C=N/c1cc(Br)c(OCc2cccc(C#N)c2)nc1C [Q.155]
≥ 50%: [1] | Pyrenophora teres | [2] | [3]

CCN(C)/C=N/c1cc(Br)c(OCCc2ccccc2C)nc1C [Q.349]
≥ 50%: [1] | Pyrenophora teres | [2] | [3]

CCCCOc1nc(C)c(/N=C/N(C)CC)cc1Br [Q.390]
≥ 50%: [1] | Pyrenophora teres | [2] | [3]

CCc1cc(/N=C/N(C)CC)c(C)nc1OC(C)c1cc(F)cc(F)c1 (stereo not drawn) [Q.228]
≥ 50%: [1] | Pyrenophora teres | [2] | [3]
